1 molecule from patent publication US20060018864A1, “Cosmetic preparation containing glycerylamino acid derivative” (priority 2002, published 2006) can be followed below.

Data set [1] is described as follows: Moisturizing effect measurement employing keratin powder (ground wool). The data set is classed as physicochemical. The following applies: (B/A)×100: water retained after further 6 hours at 20° C., 20.0% relative humidity, relative to water absorbed at 79.2% relative humidity for 48 hours. The protocol: For the constant-humidity bath under 20.0% of relative humidity, saturated aqueous potassium acetate solution was employed.
Moisturizing effect was evaluated by the following criteria,
Moisturizing effect rating criteria • ⊚: 60 or more • ◯: 50 or more and less than 60 • Δ: 40 or more and less than 50 • X: Less than 40

A short description of data set [2]: Moisture-absorption ability measurement employing keratin powder (ground wool). It counts as physicochemical. Particulars: keratin powder with sample, 20° C., 79.2% relative humidity, 48 hours; absorbed water per 1 g of keratin powder. As to the method: [Method of Moisture-Absorption Ability Measurement Carried Out by Employing Keratin Powder (Ground Wool)]
Moisture-absorption ability was evaluated by the following criteria.
Moisture-absorption ability rating criteria • ⊚: Amount of absorbed water per 1 g of keratin powder is 0.60 g or more. • ◯: Amount of absorbed water per 1 g of keratin powder is 0.50 g or more and less than 0.60 g • Δ: Amount of absorbed water per 1 g of keratin powder is 0.40 g or more and less than 0.50 g • X: Amount of absorbed water per 1 g of keratin powder is less than 0.40 g [Method of Moisturizing Effect Measurement Carried Out by Employing Keratin Powder (Ground Wool)]

Data set [3] relates to skin (forearm of panelists). Nature of the data set: Moisturizing effect on skin: skin conductance (SKICON200-EX) on forearm of panelists. It counts as in vivo, human. Particulars: Homo sapiens, topical, 20 min, read-out: Moisturizing effect on skin. The protocol:
Evaluation was carried out in a manner that forearm of panelists was washed and then applied with 100 μl of aqueous amino acid N-glyceryl derivative solution prepared in 5% concentration. Then, conductance value of the skin was measured by SKICON200-EX (manufactured by IBS K. K.) before the application and in 20 minutes elapsed after the application.
Moisturizing effect on skin was evaluated by the following criteria.
Moisturizing effect on skin rating criteria • ◯: Conductance changing ratio is 10% more • □: Conductance changing ratio is 3% or more and less than 10% • X: Conductance changing ratio is less than 3.

Data set [4] is described as follows: Stability evaluation: odor of sample solution after storage at 50° C. for 1 month. The following applies: 5% by weight sample solution, sealed, 50° C., 1 month; odor, average of 5 panelists (3: no degradation odor, 1: strong degradation odor).
Source text: [Method of Stability Evaluation]
After 1 month being elapsed, the sealing was opened, followed by odor of samples being evaluated by 5 panelists according to the following criteria.
Odor rating criteria • 3: No degradation odor • 2: Almost no degradation odor • 1: Strong degradation odor
Odor evaluation value of each sample was the average of values determined by 5 panelists; the evaluation result was represented by the following marks rated according to respective criteria. • ∘: 2.4 or more and less than 3 • □: 1.8 or more and less than 2.4 • X: Less than 1.8

In the case of `N[C@@H](CCC(=O)[O-])C(=O)[O-].O.[Na+].[Na+]` [Sodium glutamate hydrate], the Moisturizing effect entry in data set [1] is “Δ (40 or more and less than 50)”. The Moisture-absorption ability entry in data set [2] was “Δ (Amount of absorbed water per 1 g of keratin powder is 0.40 g or more and less than 0.50 g)”. In data set [3], the change in vivo at 5 % was greater than 10%. In data set [4], the Stability result is “Δ”.
